Assay results taken from PMC9926234, “Iterative computational design and crystallographic screening identifies potent inhibitors targeting the Nsp3 macrodomain of SARS-CoV-2” (Proceedings of the National Academy of Sciences of the …, 2023).
Where two headings read alike, the source gives them in different places.

What was measured:
[1] = target: T1, SARS-CoV-2 NSP3 Mac1 (Severe acute respiratory syndrome coronavirus 2, UniProt P0DTD1); format: binding; design: contains a conserved macrodomain enzyme (Mac1); conditions: for Spearman est (compound concentration vs apparent Tm): DSF dose responsiveness, 1 µM nsp3 mac1, adj p given
Procedure, shortened: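 Differential scanning fluorimetry using 5 µM Fluorescent Yellow dye in place of SYPRO Orange. Compounds run in triplicate at seven two-fold dilutions from 1,000 or 100 μM, with ΔTma taken against a DMSO control in the same plate region. Dose-response significance assessed by Spearman's coefficient between concentration and ΔTma.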

[2] = target: T1, SARS-CoV-2 NSP3 Mac1; format: binding; conditions: for Refined occupancy: ligand occupancy after refinement (phenix.refine)
[3] = PanDDA 1-BDC value of the event, crystal soak, compound concentration 100 mM, per dataset
[4] = PanDDA event map, 1 minus background density correction, crystal soaking of Mac1
[5] = crystal soak, compound concentration 100 mM, per dataset
[6] = ligand modeled in the crystal structure, crystal soak, compound concentration 100 mM, per dataset
[7] = true hit = binding in crystallographic soaking or the HTRF-based binding assay
[8] = maximal thermal upshift vs DMSO control
[9] = PanDDA 1-BDC (background density correction) of the event, crystal soak 100 mM, PanDDA run dmso_34
[10] = crystal soak, compound concentration 100 mM, PanDDA run dmso_34, series docking_lead-like_1
[11] = ligand modeled in the crystal structure, crystal soak 100 mM, PanDDA run dmso_34
[12] = overall hit flag: binding in crystallographic soaking or the HTRF-based binding assay
[13] = ligand modeled from this dataset, compound concentration 100 mM

Row | SMILES | Spearman est (compound concentration vs apparent Tm) [1] | DSF max dTma ([1]; maximal thermal upshift) | 1-BDC [2, 3] | 1-BDC [2, 4] | PanDDA hit? [2, 5] | Modeled? [2, 6] | Refined occupancy ([2]; crystal soaking of Mac1) | HIT* [2, 7] | DSF max dTma [1, 8] | 1-BDC [2, 9] | PanDDA hit? [2, 10] | Modeled? [2, 11] | HIT* [2, 12] | 1-BDC (PanDDA) [2, 4] | Modeled? [2, 13]
1 | Cn1nc(O)c2c1CN(C(=O)c1cc(O)cc(=O)o1)CC2 [FRESH00002410346] | −0.34 | 0.09 ˚C | 0.07 | 0.07 | TRUE | TRUE | 14 | Y |  |  |  |  |  |  | 
2 | Cc1nnc(CNc2cnc(N)c(Cl)n2)n1C1CC1 [ZINC000893101964] | −0.12 | 0.12 ˚C | 0.04 | 0.04 | TRUE | TRUE | 8 | Y |  |  |  |  |  |  | 
3 | Nc1ncnc2c1ncn2Cc1ccc(Cl)cn1 [ZINC000559260078] | 0.88 |  |  | 0.15 |  |  | 30 |  | 0.98 °C | 0.15 | TRUE | TRUE | Y |  | 
4 | O=C(Cc1ccc(-n2cccn2)cc1)OCC1CCCNC1=O (stereo not shown) [Z5505] |  |  |  |  |  |  |  |  | 0.16 °C |  |  |  | Y |  | 
5 | O=c1nc(N2CC(Cn3cnnc3)C3(CCC3)C2)cc(Cl)[nH]1 (stereo not shown) [FRESH00020289192] | −0.17 | 0.04 ˚C |  | 0.08 |  |  | 16 | Y |  |  |  |  |  |  | 
6 | C[C@H]1CN(C(=O)c2cccc3[nH]c(=O)oc23)C[C@@H]1C(=O)O [ZINC000833624464] | −0.44 | 0.3 ˚C |  |  |  |  | 16 | Y |  |  |  |  |  | 0.08 | TRUE
7 | O=C(O)[C@@H]1CCCN(C(=O)c2ccnc3[nH]ccc23)C1 [REAL250000548538] | 0.27 | 0.25 ˚C |  | 0.08 |  |  | 16 | Y |  |  |  |  |  |  | TRUE
8 | O=C(Nc1ccc(C(=O)N2CC(C(=O)O)Cc3ccccc32)cc1)NC1CC1 (stereo not shown) [8539_0038] | 0.19 | 0.98 ˚C | 0.06 | 0.06 | TRUE | TRUE | 12 | Y |  |  |  |  |  |  | 
9 | Cc1cc(S(=O)(=O)Nc2cnc3[nH]ccc3c2)n(C2CCCC2)n1 [FRESH00010608284] | −0.51 | 0.06 ˚C |  | 0.15 |  |  | 30 | Y |  |  |  |  |  |  | 
10 | OCc1cn(C2CCCN(c3ncnc4[nH]ccc34)C2)nn1 (stereo not shown) [Z7864] |  |  |  |  |  |  |  |  | 0.32 °C |  |  |  | Y |  | 
11 | Nc1ncnc2c1ncn2Cc1cc(-c2ccco2)on1 [ZINC000681764827] | 0.38 |  |  | 0.16 |  |  | 50 |  | 0.63 °C | 0.16 | TRUE | TRUE | Y |  | 
12 | O=C(c1cn[nH]c(=O)c1)N1CCC(CF)(C(=O)O)C1 (stereo not shown) [REAL250001448407] | −0.24 | 0 ˚C |  | 0.12 |  |  | 24 | Y |  |  |  |  |  |  | 
13 | Cc1oc(=O)oc1CSc1ncnc2[nH]cnc12 [Z7450] |  |  |  |  |  |  |  |  | 0.49 °C |  |  |  | Y |  | 
